Measured values taken from patent US20090318492A1, “INDOLE COMPOUNDS HAVING C4-ACIDIC SUBSTITUENTS AND USE THEREOF AS PHOSPHOLIPASE-A2 INHIBITORS” (priority 2005, published 2009).

Legend:
[1] = molecular target: T1, human group 1B PLA2 (hps PLA2) (Homo sapiens, UniProt P04054); experiment: Example 8 fluorimetric PLA2 inhibition assay (PPyrPM), human enzyme; type: biochemical
T1 construct: made in house; host or cells: E. coli
From the text: In this example, a fluorimetric assay procedure was used to evaluate the indole and indole-related compounds of the invention as inhibitors of group 1B phospholipase A2 (PLA2) from human, mouse and porcine. A description of this assay is found in articles: Leslie, C C and Gelb, M H (2004) Methods in Molecular Biology “Assaying phospholipase A2 activity”, 284:229-242; Singer, A G, et al. (2002) Journal of Biological Chemistry “Interfacial kinetic and binding properties of the complete set of human and mouse groups I, II, V, X, and XII secreted phospholipases A2”, 277:48535-48549, which are incorporated herein as references.
In general, this assay used a phosphatidylmethanol substrate with a pyrene fluorophore on the terminal end of the sn-2 fatty acyl chain. Without being bound by theory, close proximity of the pyrenes from neighboring phospholipids in a phospholipid vesicle caused the spectral properties to change relative to that of monomeric pyrene. Bovine serum albumin was present in the aqueous phase and captured the pyrene fatty acid when it is liberated from the glycerol backbone owing to the PLA2-catalyzed reaction. […] The effect of a given inhibitor and inhibitor concentration on human, mouse and porcine phospholipase was determined. […]
The following procedure was performed to evaluate the inhibitory potency of the evaluated compounds. • 1. […]

[2] = Example 9 mouse pharmacokinetic study; type: in vivo; details: serum, PO 30 mg/kg vs IV 3 mg/kg, male CD-1 mice
Experimental: The plasma exposure of male CD-1 mice to indole and indole-related test articles (TAs) following intravenous (IV, 3 mg/kg) and oral (PO, 30 mg/kg) routes of administration was measured. This model was used to investigate the bioavailability of indole and indole-related TAs in mouse. Mice were selected for the study since they are an accepted species frequently used in pre-clinical evaluation of drugs intended for human use.
Male CD-1 mice (7-8 weeks old) were obtained from Charles River Laboratories (Wilmington, Mass.). Two groups (N=18 and 27) of male CD-1 mice were used for the study. Upon arrival, the animals were placed on Rodent Diet 5001 (Purina Mills, Inc., St. Louis, Mo.). […]
All animals were weighed on study day (1) and the body weights were recorded and used for dose calculation. […] Clinical observations were recorded as needed.
Analysis of serum samples was performed by LC/MS/MS (Waters Quattro Premier, Milford, Mass.). Areas under curves (AUC) were calculated using Graphpad Prism Version 4. Bioavailability was calculated using the following equation: […]
where AUC0-t=total area under curve at the last measurable time point Based on the serum levels analyzed by LC/MS/MS, the calculated bioavailability of indole and indole-related TAs in CD-1 mice is summarized in Table 4.3.

T1 sequence (P04054 23-148): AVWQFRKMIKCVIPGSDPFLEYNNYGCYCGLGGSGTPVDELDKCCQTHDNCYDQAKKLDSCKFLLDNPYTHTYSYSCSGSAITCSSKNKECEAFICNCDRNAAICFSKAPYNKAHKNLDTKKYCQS

SMILES: Cc1c(C(=O)C(N)=O)c2c(OCC(=O)NS(=O)(=O)CCCC(=O)O)cccc2n1Cc1ccccc1 [ILY-IV-40, 4-[2-(3-Aminooxalyl-1-benzyl-2-methyl-1H-indol-4-yloxy)-acetylsulfamoyl]-butyric acid]
- IC50 [1]: 390 nM
- bioavailability [2]: 0.5%
